Legend:
Alopecurus = assay: Post-emergence greenhouse pot trial, annual blackgrass (Example I, Table I); type: in vivo, annual blackgrass (Alopecurus); details: for Effect on weed grasses (evaluation scheme number), Alopecurus: greenhouse pots, 4 weeks
Experimental: (§1) Seeds of weed grasses were sown in pots filled with loamy soil and placed in the greenhouse for germination and emergence. As soon as the plants had developed 3 or 4 leaves, they were sprayed with wettable powder formulations, suspended in water, of compounds according to the invention.
(§2) The results and also the results of all following examples were evaluated 4 weeks later according to the following scheme:
(§3) 4 is still considered an acceptable herbicidal effect in weeds and a satisfactory preserving effect in crop plants (cf. Bolle, Nachrichtenblatt des Deutschen Pflanzenschutzdienstes 16, 1964, pages 92-94).
(§4) Effect on weed grasses in a post-emergence trial in pots
(§5) in the greenhouse (Evaluation scheme)

spring wheat [1] = assay: Post-emergence treatment, pots on a site without roof, spring wheat (Example IV, Table IV); type: in vivo; details: emulsion concentrate; further: ranges in brackets are in %
Experimental: as §2
(§6) In summer a further experiment was carried through under similar conditions to compare the effect of compound 1a with that of comparative compound A. Both compounds were used in the form of an emulsion concentrate (Table IV).
(§7) Post-emergence treatment (evaluation scheme); experiment
(§8) in pots on a site without roof

Lolium [2] = assay: Pre-emergence greenhouse pot trial, Lolium (Example V, Table V); type: in vivo
Experimental: as §2
(§9) In a greenhouse the compounds to be tested were sprayed on the surface of the soil directly after sowing. […] Dicotyledonous crop plants (the same as used in Example I) were not damaged by the applied amounts.
(§10) Effect on weed grasses in a pre-emergence process (evalua-
(§11) tion scheme) experiment in pots in the greenhouse.

wild oat = assay: Field trial in wild oat, post-emergence treatment (Example VI, Table VI); type: in vivo; details: for efficiency in % (counting of panicles) / evaluation 5 weeks after treatment: post-emergence
Experimental: In a field trial compound 1a of the invention was sprayed in the form of a 36% wettable powder formulation onto wild oat (single system, natural growth) after the plants had developed 3 or 4 leaves.
Three lots each were treated with different concentrations of the active compound and the comparative compound, the amount of spray liquor applied being 600 liters per hectare. Besides the usual visual evaluation at the end of the trial, the number of panicles per square meter was counted. In the untreated lots 400 to 500 panicles were counted per square meter, i.e. the field was heavily infected.
The relations are still more distinct when the amount of active compound required for a 90% effect is determined by the probit method (graphical evaluation) mentioned in Example II.

Avena ludoviciana = assay: Post-emergence treatment, pots on a site without roof, Avena ludoviciana (Example IV, Table IV); type: in vivo; details: post-emergence, emulsion concentrate
Experimental: as §2, §6, §7, §8

Echinochloa [3] = assay: Post-emergence greenhouse pot trial, Echinochloa (Example I, Table I); type: in vivo; details: greenhouse pots, 4 weeks
Experimental: as §1, §2, §3, §4, §5

Setaria [4] = assay: Post-emergence greenhouse pot trial, Setaria (Example I, Table I); type: in vivo; details: greenhouse pots, 4 weeks
Experimental: as §1, §2, §3, §4, §5

spring barley = assay: Post-emergence treatment, pots on a site without roof, spring barley (Example IV, Table IV); type: in vivo; details: emulsion concentrate; further: ranges in brackets are in %
Experimental: as §2, §6, §7, §8

Alopecurus myos. = assay: Post-emergence treatment, pots on a site without roof, blackgrass (Example IV, Table IV); type: in vivo, annual black-grass (Alopecurus); details: for Effect (evaluation scheme), Alopecurus myos.: post-emergence, emulsion concentrate
Experimental: as §2, §6, §7, §8

Avena fatua [5] = assay: Post emergence treatment in two stages, boxes on a site without roof, wild oat (Table III); type: in vivo; details: 0.9 kg/hectare
Experimental: as §2
(§12) Effect on wild oat and sugar beet
(§13) Post emergence treatment in two stages of development
(§14) boxes 20 × 24 × 22 cm in size on a site without roof

Avena fatua [6] = assay: Post-emergence treatment, pots on a site without roof, Avena fatua (Example IV, Table IV); type: in vivo; details: post-emergence, emulsion concentrate
Experimental: as §2, §6, §7, §8

Lolium [7] = assay: Post-emergence greenhouse pot trial, Lolium (Example I, Table I); type: in vivo; details: greenhouse pots, 4 weeks
Experimental: as §1, §2, §3, §4, §5

Setaria [8] = assay: Pre-emergence greenhouse pot trial, Setaria (Example V, Table V); type: in vivo
Experimental: as §2, §9, §10, §11

Digitaria [9] = assay: Post-emergence greenhouse pot trial, Digitaria (Example I, Table I); type: in vivo; details: greenhouse pots, 4 weeks
Experimental: as §1, §2, §3, §4, §5

sugar beet = assay: Post emergence treatment in two stages, boxes on a site without roof, sugar beet (Table III); type: in vivo; details: 0.9 kg/hectare
Experimental: as §2, §12, §13, §14

Avena fatua [10] = assay: Post-emergence trial in two stages, pots on a site without roof, wild oat (Example II, Table II); type: in vivo; details: for 90% effective dose: probit method; for Effect on wild oat (evaluation), Avena fatua: post-emergence
Experimental: as §2
(§15) The amounts of active compound required for a 90% effect, determined by the probit method (cf. Bliss, Annals of Applied Biology, 22 1935), show very distincly the difference between the compound of the invention and the comparative compound. […] None of the compounds did any harm to the wheat.
(§16) Post-emergence treatment in two different stages of development
(§17) Experiments in pots on a site without roof
(§18) stage 1: 3 to 4 leaves with beginning growth of side
(§19) stage 2: main tillering to terminated tillering.

spring wheat [11] = assay: Post-emergence trial in two stages, pots on a site without roof, spring wheat (Example II, Table II); type: in vivo
Experimental: as §2, §15, §16, §17, §18, §19

Echinochloa [12] = assay: Pre-emergence greenhouse pot trial, Echinochloa (Example V, Table V); type: in vivo
Experimental: as §2, §9, §10, §11

Digitaria [13] = assay: Pre-emergence greenhouse pot trial, Digitaria (Example V, Table V); type: in vivo
Experimental: as §2, §9, §10, §11

In the case of `COC(=O)C(C)Oc1ccc(Oc2ccc(Cl)cc2Cl)cc1` (stereo not drawn) [A, methyl-2-[4-(2',4'-dichlorophenoxy)-phenoxy]-propionate, reference compound], the “amount sufficient/required to keep blackgrass satisfactorily under control” value (Alopecurus; greenhouse) is reported as 2.5 kg per hectare, the “Effect on weed grasses (evaluation scheme number), Alopecurus” value (“Effect on weed grasses … Alopecurus” below) (Alopecurus; 0.15 kg/hectare) is reported as 8 (32.5 to <65.0) and the “Effect on weed grasses … Alopecurus” value (Alopecurus; 0.62 kg/hectare) is reported as 7 (65.0 to <75.0). The “Effect on weed grasses … Alopecurus” value (Alopecurus; 2.5 kg/hectare) was 4 (90.0 to <95.0), the “evaluation scheme, spring wheat” value (spring wheat [1]; 0.225 kg/hectare) was 1 (0) and the “evaluation scheme, spring wheat” value (spring wheat [1]; 0.45 kg/hectare) was 1 (0). The “evaluation scheme, spring wheat” value (spring wheat [1]; 0.9 kg/hectare) was 1 (0), the “Effect on weed grasses (evaluation scheme), Lolium” value (Lolium [2]; 0.62 kg/hectare) was 6 (75.0 to <85.0) and the “Effect on weed grasses (evaluation scheme), Lolium” value (Lolium [2]; 1.25 kg/hectare) was 5 (85.0 to <90.0). The “efficiency in % (counting of panicles)” value (wild oat; 0.54 kg/hectare) was 50.7%, the “evaluation 5 weeks after treatment” value (wild oat; 0.54 kg/hectare) was 8 (32.5 to <65.0) and the “efficiency in % (counting of panicles)” value (wild oat; 0.72 kg/hectare) was 59.9%. For the same compound, the “evaluation 5 weeks after treatment” value (wild oat; 0.72 kg/hectare) was 7 (65.0 to <75.0), the “effect on wild oat” value (wild oat; 0.90 kg per hectare, in words) was “insufficient” and the “efficiency in % (counting of panicles)” value (wild oat; 0.90 kg/hectare) was 65.2%. The “evaluation 5 weeks after treatment” value (wild oat; 0.90 kg/hectare) was 6 (75.0 to <85.0), the “amount of active compound required for a 90% effect” value (wild oat; without wetting agent, probit method (graphical evaluation)) was 2.7 kg/hectare and the “Effect (evaluation scheme), Avena ludoviciana” value (shortened to “Effect … Avena ludoviciana”) (Avena ludoviciana; 0.225 kg/hectare) was 7 (65.0 to <75.0). For the same compound, the “Effect … Avena ludoviciana” value (Avena ludoviciana; 0.45 kg/hectare) was 7 (65.0 to <75.0), the “Effect … Avena ludoviciana” value (Avena ludoviciana; 0.9 kg/hectare) was 6 (75.0 to <85.0) and the “Effect on weed grasses (evaluation scheme number), Echinochloa” value (Echinochloa [3]; 0.15 kg/hectare) was 4 (90.0 to <95.0). For the same compound, the “Effect on weed grasses (evaluation scheme number), Echinochloa” value (Echinochloa [3]; 0.62 kg/hectare) was 3 (95.0 to <.97.5), the “Effect on weed grasses (evaluation scheme number), Echinochloa” value (Echinochloa [3]; 2.5 kg/hectare) was 2 (97.5 to <100) and the “Effect on weed grasses (evaluation scheme number), Setaria” value (Setaria [4]; 0.15 kg/hectare) was 4 (90.0 to <95.0). The “Effect on weed grasses (evaluation scheme number), Setaria” value (Setaria [4]; 0.62 kg/hectare) was 2 (97.5 to <100), the “Effect on weed grasses (evaluation scheme number), Setaria” value (Setaria [4]; 2.5 kg/hectare) was 1 (100) and the “evaluation scheme, spring barley” value (spring barley; 0.225 kg/hectare) was 1 (0). The “evaluation scheme, spring barley” value (spring barley; 0.45 kg/hectare) was 1 (0), the “evaluation scheme, spring barley” value (spring barley; 0.9 kg/hectare) was 1 (0) and the “Effect (evaluation scheme), Alopecurus myos.” value (from here on “Effect … Alopecurus myos.”) (Alopecurus myos.; 0.225 kg/hectare) was 8 (32.5 to <65.0). The “Effect … Alopecurus myos.” value (Alopecurus myos.; 0.45 kg/hectare) was 6 (75.0 to <85.0), the “Effect … Alopecurus myos.” value (Alopecurus myos.; 0.9 kg/hectare) was 4 (90.0 to <95.0) and the “response of annual black-grass (Alopecurus)” value (Alopecurus myos.; in words) was “little”. The “Effect on wild oat, Avena fatua, number” value (Avena fatua [5]; 3-leaf stage) was 2 (97.5 to <100), the “degree of damage % (evaluation by weight), Avena fatua” value (Avena fatua [5]; 3-leaf stage) was 99% and the “Effect on wild oat, Avena fatua, number” value (Avena fatua [5]; start of tillering) was 5 (85.0 to <90.0). For the same compound, the “degree of damage % (evaluation by weight), Avena fatua” value (Avena fatua [5]; start of tillering) was 79%, the “Effect (evaluation scheme), Avena fatua” value (Avena fatua [6]; 0.225 kg/hectare) was 8 (32.5 to <65.0) and the “Effect (evaluation scheme), Avena fatua” value (Avena fatua [6]; 0.45 kg/hectare) was 8 (32.5 to <65.0). The “Effect (evaluation scheme), Avena fatua” value (Avena fatua [6]; 0.9 kg/hectare) was 6 (75.0 to <85.0), the “Effect on weed grasses (evaluation scheme number), Lolium” value (Lolium [7]; 0.15 kg/hectare) was 7 (65.0 to <75.0) and the “Effect on weed grasses (evaluation scheme number), Lolium” value (Lolium [7]; 0.62 kg/hectare) was 5 (85.0 to <90.0). The “Effect on weed grasses (evaluation scheme number), Lolium” value (Lolium [7]; 2.5 kg/hectare) was 3 (95.0 to <.97.5), the “Effect on weed grasses (evaluation scheme), Setaria” value (Setaria [8]; 0.62 kg/hectare) was 8 (32.5 to <65.0) and the “Effect on weed grasses (evaluation scheme), Setaria” value (Setaria [8]; 1.25 kg/hectare) was 6 (75.0 to <85.0). The “Effect on weed grasses (evaluation scheme number), Digitaria” value (Digitaria [9]; 0.15 kg/hectare) was 8 (32.5 to <65.0), the “Effect on weed grasses (evaluation scheme number), Digitaria” value (Digitaria [9]; 0.62 kg/hectare) was 3 (95.0 to <.97.5) and the “Effect on weed grasses (evaluation scheme number), Digitaria” value (Digitaria [9]; 2.5 kg/hectare) was 1 (100). For the same compound, the sugar beet number (sugar beet; 2-leaf stage) was 2 (0 to 2.5), the sugar beet number (sugar beet; 4-leaf stage) was 2 (0 to 2.5) and the 90% effective dose (Avena fatua [10]; stage 1 (3 to 4 leaves with beginning growth of side)) was 0.55 kg per hectare. For the same compound, the “Effect on wild oat (evaluation), Avena fatua” value (Avena fatua [10]; stage 1, 0.112 kg/hectare) was 9 (0 to <32.5), the “Effect on wild oat (evaluation), Avena fatua” value (Avena fatua [10]; stage 1, 0.225 kg/hectare) was 8 (32.5 to <65.0) and the “Effect on wild oat (evaluation), Avena fatua” value (Avena fatua [10]; stage 1, 0.45 kg/hectare) was 5 (85.0 to <90.0). The “Effect on wild oat (evaluation), Avena fatua” value (Avena fatua [10]; stage 1, 0.9 kg/hectare) was 3 (95.0 to <.97.5), the 90% effective dose (Avena fatua [10]; stage 2 (main tillering to terminated tillering)) was 0.82 kg per hectare and the “Effect on wild oat (evaluation), Avena fatua” value (Avena fatua [10]; stage 2, 0.112 kg/hectare) was 8 (32.5 to <65.0). The “Effect on wild oat (evaluation), Avena fatua” value (Avena fatua [10]; stage 2, 0.225 kg/hectare) was 7 (65.0 to <75.0), the “Effect on wild oat (evaluation), Avena fatua” value (Avena fatua [10]; stage 2, 0.45 kg/hectare) was 5 (85.0 to <90.0) and the “Effect on wild oat (evaluation), Avena fatua” value (Avena fatua [10]; stage 2, 0.9 kg/hectare) was 5 (85.0 to <90.0). For the same compound, the “evaluation, spring wheat” value (spring wheat [11]; stage 1, 0.112 kg/hectare) was 1 (0), the “evaluation, spring wheat” value (spring wheat [11]; stage 1, 0.225 kg/hectare) was 1 (0) and the “evaluation, spring wheat” value (spring wheat [11]; stage 1, 0.45 kg/hectare) was 1 (0). For the same compound, the “evaluation, spring wheat” value (spring wheat [11]; stage 1, 0.9 kg/hectare) was 1 (0), the “evaluation, spring wheat” value (spring wheat [11]; stage 2, 0.112 kg/hectare) was 1 (0) and the “evaluation, spring wheat” value (spring wheat [11]; stage 2, 0.225 kg/hectare) was 1 (0). For the same compound, the “evaluation, spring wheat” value (spring wheat [11]; stage 2, 0.45 kg/hectare) was 1 (0), the “evaluation, spring wheat” value (spring wheat [11]; stage 2, 0.9 kg/hectare) was 1 (0) and the “Effect on weed grasses (evaluation scheme), Echinochloa” value (Echinochloa [12]; 0.62 kg/hectare) was 4 (90.0 to <95.0). For the same compound, the “Effect on weed grasses (evaluation scheme), Echinochloa” value (Echinochloa [12]; 1.25 kg/hectare) was 3 (95.0 to <.97.5), the “Effect on weed grasses (evaluation scheme), Digitaria” value (Digitaria [13]; 0.62 kg/hectare) was 7 (65.0 to <75.0) and the “Effect on weed grasses (evaluation scheme), Digitaria” value (Digitaria [13]; 1.25 kg/hectare) was 4 (90.0 to <95.0).
